In one assay the test system is KERtr cells. The assay is described as follows: Keratinocyte proliferation assay (BrdU incorporation). The format is cell-based. The note with it: Homo sapiens, Keratinocyte, 72 h, KERtr human skin keratinocytes, 72 hr treatment, read-out: Kera. Prolif. IC50. Here is the method:
6. The keratinocyte proliferation assay is described in the “Assay” section of the Description, infra.
5. The Keratinocyte Proliferation Assay
This Assay is indicative for the treatment of psoriasis.
(5) The Keratinocyte Proliferation Assay:
KERtr cells (Human skin keratinocyte transformed with a retrovirus vector, obtained from ATCC) were plated in 96-well flat-bottomed plates (3000 cells/well) in 100 µl keratinocyte serum free medium supplemented with bovine pituitary extract in the absence of EGF (Life Technologies, Rockville, Md.) and incubated at 37° C. for two days. The cells were treated with various concentrations of VDR ligands (ten-fold serial dilution from 10,000 nM to 0.1 nM in triplicate), dissolved in 100 µl keratinocyte serum free medium supplemented with bovine pituitary extract in the absence of EGF and incubated at 37° C. for 72 hr. […] Potency values (IC50) values were determined as the concentration (nM) of compound that elicited a half-maximal response.
For orientation: Dividing cells build labelled thymidine or BrdU into new DNA.

The next assay has as its system rat osteocalcin promoter. Nature of the assay: OCN (osteocalcin) promoter assay in RG-15 (ROS 17/2.8) cells. The format is cell-based. Here is the method: 4. The OCN Promoter test is described in the “Assay” section of the Description, infra.
3. The OCN (Osteocalcin) Promoter Assay
The OCN Promoter Assay is an indicator and marker for osteoporosis. Desired assay results are EC50 less than or equal to 325 nM. Preferred assay results are less than 50 nM.
(3) Materials and Method for The OCN Promoter Assay:
The activation of osteocalcin by VDR ligands was evaluated in a rat osteoblast-like cell line RG-15 (ROS 17/2.8) stably expressing rat osteocalcin promoter fused with luciferase reporter gene. The stable cell lines were established as reported before (Activation of Osteocalcin Transcription involves interaction of protein kinase A- and Protein kinase C-dependent pathways. Boguslawski, G., Hale, L. V., Yu, X.-P., Miles, R. R., Onyia, J. E., Santerre R. F., Chandrasekhar, S. J Biol. Chem. 275, 999-1006, 2000). Confluent RG-15 cells maintained in DMEM/F-12 medium (3:1) containing 5% FBS, 300 µg/ml G418 and at 37° C. under 5% CO2/95% air atmosphere were trypsinized (0.25% trypsin) and plated into white opaque 96-well cell culture plates (25000 cells/well). After 24 hr, cells (in DMEM/F-12 medium+2% FBS) were treated with various concentrations of compounds, dissolved in DMSO. The final DMSO concentration remained at 0.01% (v/v). After 48 hr treatment, the medium was removed, cells were lysed with 50 µl of lysis buffer (From Luciferase reporter assay system, Roche Diagnostics, Indianapolis, Ind.) and assayed for luciferase activity using the Luciferase Reporter Gene Assay kit from Boehringer Mannheim as per manufacturer's specifications.

Where two headings read alike, the source gives them in different places.

For orientation: IC50 means the concentration at which inhibition is half-maximal. For the compound `CCC(CC)(c1ccc(OCC(O)C(C)(C)C)c(C)c1)c1cc(C)c(CS(C)(=O)=O)s1` (single isomer, unassigned) [Ex. 11B], the IC50 in the assay on KERtr cells is 216 nM.

On to `CCC(CC)(c1ccc(OCS(C)(=O)=O)c(C)c1)c1cc(C)c(CCC(O)C(C)(C)C)s1` (single isomer, unassigned) [Ex. 15A], for which the IC50 in the assay on KERtr cells amounted to 76 nM.

As usually defined, the EC50 is the concentration that produces a half-maximal response. For the compound `CCC(CC)(c1ccc(OCC(O)C(C)(C)C)c(C)c1)c1cc(C)c(C(=O)NCCS(C)(=O)=O)s1` (single isomer, unassigned) [Ex. 39, 5-[1-ethyl-1-[4-(2-hydroxy-3,3-dimethyl-butoxy)-3-methylphenyl]propyl]-3-methylthiophene-2-carboxylic acid (2-methylsulfonyl-ethyl) amide], the EC50 with rat osteocalcin promoter came to 300 nM. In addition, the IC50 with KERtr cells was 367 nM.

For the compound `CCC(CC)(c1ccc(OCC(O)C(C)(C)C)c(C)c1)c1cc(C)c(C(=O)NCC(=O)O)s1` (single isomer, unassigned) [Ex. 48], the IC50 in the assay on KERtr cells is 71.5 nM.

With `CCC(CC)(c1ccc(OCC(O)C(C)(C)C)c(C)c1)c1cc(C)c(C(=O)N[C@H](C)C(=O)OC)s1` (single isomer, unassigned) [Ex. 66, D-2-[(5-{1-Ethyl-1-[4-(2-hydroxy-3,3-dimethyl-butoxy)-3-methyl-phenyl]-propyl}-3-methyl-thiophene-2-carbonyl)-amino]-propionic acid methyl ester], in the assay on rat osteocalcin promoter, the EC50 was determined as 28.4 nM. Moreover, the IC50 in the assay on KERtr cells turned out to be 277 nM.

As to `CCC(CC)(c1ccc(OCC(O)C(C)(C)C)c(C)c1)c1ccc(C(=O)O)s1` (single isomer, unassigned) [Ex. 89, 3′-[4-(2-hydroxy-3,3-dimethylbutoxy)-3-methylphenyl]-3′-[5-carboxy-thiophen-2-yl]pentane], the EC50 in the assay with rat osteocalcin promoter (Rattus norvegicus) amounted to 314 nM. Besides, in the assay on KERtr cells, the IC50 was 105 nM.

`CCC(CC)(c1ccc(OCC(O)C(C)(C)C)c(C)c1)c1cc(C)c(C(=O)N(C)C)s1` (stereo not shown) [Ex. 4]: in the assay with rat osteocalcin promoter (Rattus norvegicus), the EC50 was 147 nM. In addition, the IC50 with KERtr cells turned out to be 122 nM.

For `CCC(CC)(c1ccc(OCC(O)C(C)(C)C)c(C)c1)c1cc(C)c(C(=O)OC)s1` (stereo not shown) [Ex. 6A], the IC50 in the assay with KERtr cells was 439 nM.

`CCC(CC)(c1ccc(OCC(O)C(C)(C)C)c(C)c1)c1cc(C)c(CS(C)(=O)=O)s1` (stereo not shown) [Ex. 10]: the EC50 with rat osteocalcin promoter (Rattus norvegicus) came out at 51.3 nM. Besides, the IC50 with KERtr cells was found to be 25 nM.

On to `CCC(CC)(c1ccc(OC[S+](C)[O-])c(C)c1)c1cc(C)c(CC[C@@H](O)C(C)(C)C)s1` (stereo partly shown) [Ex. 16], for which the EC50 with rat osteocalcin promoter (Rattus norvegicus) is 31 nM. The IC50 in the assay with KERtr cells stood at 257 nM.

Regarding `CCC(CC)(c1ccc(OS(C)(=O)=O)c(C)c1)c1cc(C)c(CC[C@@H](O)C(C)(C)C)s1` [Ex. 18], in the assay with rat osteocalcin promoter (Rattus norvegicus), the EC50 was found to be 11.2 nM. The IC50 with KERtr cells amounted to 24.5 nM.

For the compound `CCC(CC)(c1ccc(CCC(=O)O)c(C)c1)c1cc(C)c(CCC(O)C(C)(C)C)s1` (stereo not shown) [Ex. 29], the EC50 in the assay with rat osteocalcin promoter (Rattus norvegicus) was 8.65 nM. Further, the IC50 in the assay with KERtr cells is 4.6 nM.

Turning to `CCC(CC)(c1ccc(OCC(O)C(C)(C)C)c(C)c1)c1cc(C)c(COCC(=O)O)s1` (stereo not shown) [Ex. 124, 2-(5-{1-ethyl-1-[4-(2-hydroxy-3,3-dimethyl-butoxy)-3-methyl-phenyl]-propyl}-3-methyl-thiophen-2-yl-methoxy)acetic acid], the concentration for a half-maximal effect (EC50) in the assay with rat osteocalcin promoter (Rattus norvegicus) worked out at 101 nM. The IC50 in the assay on KERtr cells was 216 nM.

With `CCC(CC)(c1ccc(OCC(O)C(C)(C)C)c(C)c1)c1cc(C)c(S(=O)(=O)NCCC(=O)O)s1` (stereo not shown) [Ex. 142], the IC50 in the assay on KERtr cells is 300 nM.

For `CCC(CC)(c1ccc(OCC(=O)C(C)(C)C)c(C)c1)c1cc(C)c(S(=O)(=O)N(C)CCC(=O)O)s1` [Ex. 145], the EC50 with rat osteocalcin promoter (Rattus norvegicus) was found to be 222 nM. Besides, the IC50 with KERtr cells worked out at 702 nM.

Turning to `CCc1cc(C(CC)(CC)c2ccc(S(=O)(=O)NCC(=O)OC)s2)ccc1OCC(O)C(C)(C)C` (stereo not shown) [Ex. 154], the EC50 with rat osteocalcin promoter (Rattus norvegicus) was 20.5 nM.

`CCc1cc(C(CC)(CC)c2ccc(S(=O)(=O)NCC(=O)O)s2)ccc1OCC(O)C(C)(C)C` (stereo not shown) [Ex. 155]: the EC50 with rat osteocalcin promoter (Rattus norvegicus) came out at 18.4 nM. Further, the IC50 in the assay on KERtr cells is 788 nM.

Turning to `CCCc1cc(C(CC)(CC)c2ccc(S(=O)(=O)NCC(=O)O)s2)ccc1OCC(O)C(C)(C)C` (stereo not shown) [Ex. 157], the 50% effective concentration (EC50) with rat osteocalcin promoter (Rattus norvegicus) came out at 7.65 nM.

Turning to `CCC(CC)(c1ccc(OCC(O)C(C)(C)C)c(C)c1)c1cc(C)c(S(=O)(=O)NC(C)=O)s1` (stereo not shown) [Ex. 158, 5-{1-Ethyl-1-[4-(2-hydroxy-3,3-dimethyl-butoxy)-3-methyl-phenyl]-propyl}-3-methyl-thiophene-2-sulfonic acid acetyl-amide], the EC50 in the assay on rat osteocalcin promoter (Rattus norvegicus) worked out at 85 nM. For the same compound, in the assay with KERtr cells, the IC50 turned out to be 500 nM.

Take `CCC(=O)NS(=O)(=O)c1sc(C(CC)(CC)c2ccc(OCC(O)C(C)(C)C)c(C)c2)cc1C` (stereo not shown) [Ex. 159, 5-{1-Ethyl-1-[4-(2-hydroxy-3,3-dimethyl-butoxy)-3-methyl-phenyl]-propyl}-3-methyl-thiophene-2-sulfonic acid propionyl-amide]: the EC50 in the assay on rat osteocalcin promoter (Rattus norvegicus) turned out to be 89.7 nM. For the same compound, the IC50 with KERtr cells turned out to be 234 nM.

Consider `CCC(CC)(c1ccc(OCC(=O)C(C)(C)C)c(C)c1)c1cc(C)c(S(=O)(=O)NC(C)=O)s1` [Ex. 160, 5-{1-[4-(3,3-Dimethyl-2-oxo-butoxy)-3-methyl-phenyl]-1-ethyl-propyl}-3-methyl-thiophene-2-sulfonic acid acetyl-amide], for which the EC50 with rat osteocalcin promoter (Rattus norvegicus) amounted to 40.3 nM. Further, the IC50 in the assay with KERtr cells worked out at 1100 nM.

Consider `CCC(CC)(c1ccc(OCC(=O)C(C)(C)C)c(C)c1)c1cc(C)c(S(=O)(=O)/N=C/N(C)C)s1` [Ex. 161], for which, in the assay with rat osteocalcin promoter (Rattus norvegicus), the EC50 was found to be 77 nM.

In the case of `CCC(=O)NS(=O)(=O)c1sc(C(CC)(CC)c2ccc(OCC(=O)C(C)(C)C)c(C)c2)cc1C` [Ex. 163, 5-{1-[4-(3,3-dimethyl-2-oxo-butoxy)-3-methyl-phenyl]-1-ethyl-propyl}-3-methyl-thiophene-2-sulfonic acid propionyl-amide], in the assay with rat osteocalcin promoter (Rattus norvegicus), the EC50 was found to be 106 nM.

For `CCC(CC)(c1ccc(OCC(=O)C(C)(C)C)c(C)c1)c1cc(C)c(S(=O)(=O)NC(=O)C(C)C)s1` [Ex. 164, 5-{1-[4-(3,3-Dimethyl-2-oxo-butoxy)-3-methyl-phenyl]-1-ethyl-propyl}-3-methyl-thiophene-2-sulfonic acid isobutyryl-amide], in the assay on rat osteocalcin promoter (Rattus norvegicus), the EC50 amounted to 150 nM.

For the compound `CCC(CC)(c1ccc(OCC(=O)C(C)(C)C)c(C)c1)c1cc(C)c(S(=O)(=O)NC(=O)C2CC2)s1` [Ex. 165, 5-{1-[4-(3,3-Dimethyl-2-oxo-butoxy)-3-methyl-phenyl]-1-ethyl-propyl}-3-methyl-thiophene-2-sulfonic acid cyclopropanecarbonyl-amide], the EC50 with rat osteocalcin promoter (Rattus norvegicus) turned out to be 138 nM.

Take `CCC(CC)(c1ccc(OCC(=O)C(C)(C)C)c(C)c1)c1cc(C)c(S(=O)(=O)NC(=O)COC)s1` [Ex. 166, 5-{1-[4-(3,3-Dimethyl-2-oxo-butoxy)-3-methyl-phenyl]-1-ethyl-propyl}-3-methyl-thiophene-2-sulfonic acid (2-methoxy-acetyl)-amide]: in the assay on rat osteocalcin promoter (Rattus norvegicus), the EC50 is 151 nM.

Turning to `CCC(CC)(c1ccc(OCC(O)C(C)(C)C)c(C)c1)c1cc(C)c(-c2n[nH]c(=S)o2)s1` (stereo not shown) [Ex. 172, 5-(5-{1-Ethyl-1-[4-(2-hydroxy-3,3-dimethyl-butoxy)-3-methyl-phenyl]-propyl}-3-methyl-thiophen-2-yl)-3H-[1,3,4]oxadiazole-2-thione], in the assay with rat osteocalcin promoter (Rattus norvegicus), the EC50 was 17.2 nM.

As to `CCC(CC)(c1ccc(OCC(O)C(C)(C)C)c(C)c1)c1cc(C)c(-c2n[nH]c(=S)o2)s1` (stereo not shown) [Ex. 173], the IC50 in the assay on KERtr cells is 478 nM.

`CCC(CC)(c1ccc(CCC(O)C(C)(C)C)c(C)c1)c1cc(C)c(C(=O)OC)s1` (stereo not shown) [Ex. 174, 5-{1-Ethyl-1-[4-(3-hydroxy-4,4-dimethyl-pentyl)-3-methyl-phenyl]-propyl}-3-methyl-thiophene-2-carboxylic acid methyl ester]: the EC50 in the assay with rat osteocalcin promoter (Rattus norvegicus) worked out at 172 nM.

For the compound `CCC(CC)(c1ccc(CCC(O)C(C)(C)C)c(C)c1)c1cc(C)c(C(=O)O)s1` (stereo not shown) [Ex. 175, 5-{1-Ethyl-1-[4-(3-hydroxy-4,4-dimethyl-pentyl)-3-methyl-phenyl]-propyl}-3-methyl-thiophene-2-carboxylic acid], the EC50 in the assay with rat osteocalcin promoter (Rattus norvegicus) stood at 127 nM.

Take `CCC(CC)(c1ccc(CCC(=O)C(C)(C)C)c(C)c1)c1cc(C)c(S(=O)(=O)NCC(=O)O)s1` [Ex. 182]: the EC50 in the assay on rat osteocalcin promoter (Rattus norvegicus) was determined as 231 nM.

Consider `CCOC(=O)CSCc1sc(C(CC)(CC)c2ccc(OCC(=O)C(C)(C)C)c(C)c2)cc1C` [Ex. 183, (5-{1-[4-(3,3-Dimethyl-2-oxo-butoxy)-3-methyl-phenyl]-1-ethyl-propyl}-3-methyl-thiophen-2-ylmethylsulfanyl)-acetic acid ethyl ester], for which the EC50 in the assay with rat osteocalcin promoter (Rattus norvegicus) turned out to be 38.6 nM.

Values taken from patent US7601850B2, “Phenyl-thiophene type vitamin D receptor modulators” (Eli Lilly and Company, priority 2002, dated 2009).
